The record followed here is ChEMBL document CHEMBL1149865, “Pyridinium alkaloid-coupled secoiridoids from the flower buds of Lonicera japonica” (2008).

SMILES strings stand for the structures.

By inhibition is commonly meant the drop in the measured response relative to a control, in per cent.

The test can be described thus: Antiinflammatory activity in rat polymorphonuclear leukocytes assessed as inhibition of platelet activating factor-induced release of glucuronidase at 10 uM after 15 mins. The format is functional. The conditions noted are these: 0.25 h.

Turning to `C=C[C@H]1[C@H](O[C@@H]2O[C@H](CO)[C@@H](O)[C@H](O)[C@H]2O)OC=C(C(=O)OC)[C@H]1/C=C/c1cc(C(=O)[O-])c[n+](CCO)c1` [LONIJAPOSIDE B], the inhibition at 10 µM was determined as 35.8%.
To `C=C[C@H]1[C@H](O[C@@H]2O[C@H](CO)[C@@H](O)[C@H](O)[C@H]2O)OC=C(C(=O)OC)[C@H]1/C=C/c1cc(C(=O)[O-])c[n+](CCCC(=O)O)c1` [LONIJAPOSIDE A] belongs 11%.
As for `C=C[C@H]1[C@H](O[C@@H]2O[C@H](CO)[C@@H](O)[C@H](O)[C@H]2O)OC=C(C(=O)O)[C@H]1/C=C/c1cc(C(=O)[O-])c[n+](CCO)c1` [LONIJAPOSIDE C], the inhibition at 10 µM stood at 69.5%.
